Entries after “also recorded” stand apart in the source; their conditions may differ. Residues, ends and D or L forms follow the SMILES beside them. *: point of attachment. Cbz = O=C(OCc1ccccc1)*
Key:
[1] = test system: Vif-mediated depletion of APOBEC3G-HA in 293T cells; test: Proteasome inhibitor panel in 293T cells transiently transfected with APOBEC3G-HA and Vif, immunoblot; assay type: cell-based; details: 12.5 μM, 15 hours
Protocol: 293T cells were transfected with the indicated amounts of expression vector DNA using the calcium phosphate method. Lysis buffers used for immunoblotting were (1) 100-400 mM NaCl, 50 mM Hepes, 0.2% NP40, 0-5 mM EDTA, 0.1 mM PMSF, plus complete protease inhibitor cocktail (Roche)(1 tablet/50 ml buffer) or (2) 50 mM Hepes, pH 7.2, 135 mM NaCl, 1% Triton X-100, 0.5% deoxycholate, 10% glycerol, 1 mM EDTA, 1× protease inhibitor cocktail (Calbiochem). Samples were analyzed using standard SDS-PAGE techniques.
For the proteasome inhibitor experiments in transiently transfected cells, 293T cells were transiently transfected with 0.1 μg of APOBEC3G-HA DNA, 2 μg of control vector DNA and 2 μg of either pcDNA3.1 Vif DNA vector or an additional 2 μg of control vector DNA. Twenty-four hours after transfection, the cells were treated with the indicated inhibitor and harvested 15 hours later. For the proteasome inhibitor experiments using infected H9 cells, H9 cells were infected by spinoculation as described above. Forty-four hours after infection, the cells were treated for 16 hours with either dimethylsulfoxide (DMSO) (0.1%) or 0.25 μM epoxomicin. All of the inhibitors (ALLN, MG132, epoxomicin, Calpain Inhibitor III, and clasto-Lactacystin-β-Lactone) were purchased from CalBiochem and were dissolved in DMSO.
To confirm this finding in a different system, a similar experiment was performed using 293T cells transiently transfected with an APOBEC3G-HA expression vector and either a Vif expression vector or a control vector. Twenty-four hours after transfection the cells were treated with a panel of different proteasome inhibitors for a 15-hour period. It was observed that the broadly acting proteasome inhibitors MG132 (12.5 μM) and ALLN (25 μM) as well as the more specific proteasome inhibitor clasto-Lactacystin-β-Lactone ([…], 20 μM) enhanced the levels of APOBEC3G-HA in the presence of Vif when compared to the diluent control sample (0.1% DMSO) (FIG. 8C, lanes 7 through 12).
FIG. 8A-C. Vif shortens the half-life of APOBEC3G, and proteasome inhibitors partially block the intracellular depletion of APOBEC3G-HA. (A) Pulse-Chase Radiolabeling. HEK 293 cells transiently transfected with APOBEC3G-HA and Vif or control vector DNA were pulse-labeled for 30 min. The initial pulse-labeled (t=0) samples were harvested, and the remaining samples were incubated with chase media for the indicated time points. After immunoprecipitation with anti-HA antibody, the samples were analyzed by SDS-PAGE and the gels were subjected to autoradiography. The relative intensity of the bands were quantified and the Vif (+) and Vif (−) samples were normalized to 1 and graphed (FIG. 8, right side). The T1/2 of APOBEC3G was 1.9 hours in the presence of Vif and 10 hours in the absence of Vif. (B) Proteasome inhibitor studies using infected H9 cells. Mock or HIV-1 wt-infected H9 cells were treated with the broadly active proteasome inhibitor epoxomicin (0.25 μM) or DMSO (0.1%) 44 hours after infection. Sixteen hours following treatment, the cells were harvested; and whole cell lysates were prepared by boiling the cells in Laemmli lysis buffer. Note that Epoxomicin caused an increase in endogenous APOBEC3G levels in the infected sample (compare lane 2 with lane 1). (C) Proteasome inhibitor studies using transiently-transfected 293T cells. Twenty-four hours following transfection of 293T cells with 0.1 μg APOBEC3G and 2 μg Vif or control vector DNA, the cells were treated with the indicated concentration of inhibitor for 15 hours. APOBEC3G-HA levels were elevated in the presence of the proteasome inhibitors MG132, ALLN, and clasto-lactacystin-β-lactone (lanes 8-11), but not in the presence of calpain inhibitor III (lane 12).

[2] = test system: Vif-mediated degradation of APOBEC3G (luc-APOBEC3G); test: Vif/luc-APOBEC3G HeLa cell line luciferase assay; assay type: cell-based
From the text: The following is one non-limiting example of a suitable assay for identifying agents that reduce Vif-induced degradation of APOBEC3G. Mammalian cells (e.g., an immortalized cell line) are stably transfected with an expression vector that includes a coding sequence for a luciferase-APOBEC3G fusion protein, such that the cells synthesize the luciferase-APOBEC3G (luc-APOBEC3G) fusion protein. A substrate for luciferase is provided in the cell medium, such that the substrate enters the cell, and is acted on by the luciferase portion of the luciferase-APOBEC3G to yield a luminescent product. The level of luciferase in the cell is detected using a luminometer, and the level of luc-APOBEC3G is expressed as relative light units. The cells are transfected with an expression vector that includes a coding sequence for Vif to yield a Vif/luc-APOBEC3G cell. Because Vif induces degradation of luc-APOBEC3G, the presence of Vif protein in the Vif/luc-APOBEC3G cell reduces the level of luc-APOBEC3G, compared to the level of luc-APOBEC3G in the absence of Vif. When the Vif/luc-APOBEC3G cell is contacted with a test agent that reduces Vif-induced APOBEC3G degradation, the level of luc-APOBEC3G increases relative to the level of luc-APOBEC3G in the Vif/luc-APOBEC3G cell in the absence of the test agent.
Several cell lines were constructed that could serve as the basis for a high-throughput assay for inhibitors of HIV-1 Vif action. The cell lines produce Vif and an APOBEC3G fusion protein composed of APOBEC3G fused to a heterologous protein that provides a detectable signal. One such cell line was constructed as follows. HeLa cells were co-transfected with both a Vif expression vector and a vector expressing APOBEC3G tagged with renilla-luciferase (luc-APOBEC3G), to generate a Vif/luc-APOBEC3G cell line. […]
The Vif/luc-APOBEC3G cell line was treated with the proteasome inhibitor MG132, an agent capable of blocking Vif-mediated degradation of APOBEC3G, and the cells were subsequently lysed. […] The level of luc-APOBEC3G was expressed as relative light units (RLU). […]

CC(C)C[C@@H](C=O)NC(=O)[C@H](CC(C)C)NC(=O)[C@H](CC(C)C)NC(=O)OCc1ccccc1 [MG132] (Cbz-Leu-Leu-Leu-aldehyde)
levels of APOBEC3G-HA in the presence of Vif compared to diluent control (0.1% DMSO) [1]: enhanced; also recorded: elevated
Vif-caused reduction in the level of luc-APOBEC3G protein ([2]; Vif/luc-APOBEC3G cells): reversed
reduction of RLU in the absence of the proteasome inhibitor relative to MG132-treated cells ([2]; Vif/luc-APOBEC3G cells): approximately 20 fold
level of luc-APOBEC3G in cell lysate ([2]; Vif/luc-APOBEC3G cells treated with MG132): 203333 RLU

Reference: patent publication US7723021B2, “Methods for treating lentivirus infections” (The J. David Gladstone Institutes, priority 2003, dated 2010)
